Test results as given in patent US6534542B2, “(2-hydroxy)ethyl-thioureas useful as modulators of α2B adrenergic receptors” (Allergen Sales, Inc., priority 2001, dated 2003).

Columns and labels:
alpha2A receptor = target: T1, alpha2A receptor (Homo sapiens, UniProt P08913); assay: Receptor Selection and Amplification Technology (RSAT) assay, alpha2A; format: cell-based; conditions: NIH-3T3 cells; for EC50: NA = not active at concentrations less than 10 micromolar, read-out: RSAT EC50 (nM) Alpha 2A; for fraction of activity of the standard (brimonidine) attained, Alpha 2A (number in parenthesis): ratio of maximal effect to that of standard full agonist brimonidine
T1 construct: expressed in transfected cells; host or cells: NIH-3T3
T1 sequence (P08913 1-465): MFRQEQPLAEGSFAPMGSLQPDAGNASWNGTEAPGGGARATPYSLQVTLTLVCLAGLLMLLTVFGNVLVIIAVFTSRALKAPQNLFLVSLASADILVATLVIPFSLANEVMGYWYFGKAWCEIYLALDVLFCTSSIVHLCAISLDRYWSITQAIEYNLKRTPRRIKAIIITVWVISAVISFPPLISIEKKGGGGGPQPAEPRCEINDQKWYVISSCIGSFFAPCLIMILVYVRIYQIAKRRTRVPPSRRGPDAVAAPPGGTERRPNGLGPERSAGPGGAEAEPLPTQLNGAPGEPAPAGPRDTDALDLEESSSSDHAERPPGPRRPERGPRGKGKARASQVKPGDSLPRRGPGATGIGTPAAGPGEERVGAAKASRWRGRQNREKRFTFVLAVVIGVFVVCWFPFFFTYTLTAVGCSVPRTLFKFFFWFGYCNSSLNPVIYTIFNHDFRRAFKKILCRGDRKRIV
From the text: (§1) The compounds of the invention are agonists of α2 adrenergic receptors, particularly they tend to be specific or selective agonists of α2B and/or to a lesser extent α2C adrenergic receptors, in preference over α2A adrenergic receptors. […] Al., 1995, Pharmacol. Toxicol. 76, pp. 308-311 (incorporated herein by reference) and is also described below. Another reference pertinent to this assay is Conklin et al. (1993) Nature 363:274-6, also incorporated herein by reference.
(§2) The RSAT assay measures a receptor-mediated loss of contact inhibition that results in selective proliferation of receptor-containing cells in a mixed population of confluent cells. The increase in cell number is assessed with an appropriate transfected marker gene such as β-galactosidase, the activity of which can be easily measured in a 96-well format. Receptors that activate the G protein, Gq, elicit this response. Alpha2 receptors, which normally couple to Gi, activate the RSAT response when coexpressed with a hybrid Gq protein that has a Gi receptor recognition domain, called Gq/i5^2.
(§3) NIH-3T3 cells are plated at a density of 2×10^6 cells in 15 cm dishes and maintained in Dulbecco's modified Eagle's medium supplemented with 10% calf serum. One day later, cells are cotransfected by calcium phosphate precipitation with mammalian expression plasmids encoding p-SV-β-galactosidase (5-10 μg), receptor (1-2 μg) and G protein (1-2 μg). 40 μg salmon sperm DNA may also be included in the transfection mixture. Fresh media is added on the following day and 1-2 days later, cells are harvested and frozen in 50 assay aliquots. Cells are thawed and 100 μl added to 100 μl aliquots of various concentrations of drugs in triplicate in 96-well dishes. Incubations continue 72-96 hr at 37°. After washing with phosphate-buffered saline, β-galactosidase enzyme activity is determined by adding 200 μl of the chromogenic substrate (consisting of 3.5 mM o-nitrophenyl-β-D-galactopyranoside and 0.5% nonidet P-40 in phosphate buffered saline), incubating overnight at 30 and measuring optical density at 420 nm. The absorbance is a measure of enzyme activity, which depends on cell number and reflects a receptor-mediated cell proliferation. The EC50 and maximal effect of each drug at each alpha2 receptor is determined. The efficacy or intrinsic activity is calculated as a ratio of the maximal effect of the drug to the maximal effect of a standard full agonist for each receptor subtype. Brimonidine, also called […], the chemical structure of which is shown below, is used as the standard agonist for the alpha2A, alpha2B and alpha2C receptors. [drawing 6]
The results of the RSAT assay with several exemplary compounds of the invention are disclosed in Table 3. […] NA stands for “not active” at concentrations less than 10 micromolar. […]

alpha2B receptor = target: T2, alpha2B receptor (Homo sapiens, UniProt P18089); assay: Receptor Selection and Amplification Technology (RSAT) assay, alpha2B; format: cell-based; conditions: NIH-3T3 cells; for EC50: NA = not active at concentrations less than 10 micromolar, read-out: RSAT EC50 (nM) Alpha 2B; for fraction of activity of the standard (brimonidine) attained, Alpha 2B (number in parenthesis): ratio of maximal effect to that of standard full agonist brimonidine
T2 construct: expressed in transfected cells; host or cells: NIH-3T3
T2 sequence (P18089 1-450): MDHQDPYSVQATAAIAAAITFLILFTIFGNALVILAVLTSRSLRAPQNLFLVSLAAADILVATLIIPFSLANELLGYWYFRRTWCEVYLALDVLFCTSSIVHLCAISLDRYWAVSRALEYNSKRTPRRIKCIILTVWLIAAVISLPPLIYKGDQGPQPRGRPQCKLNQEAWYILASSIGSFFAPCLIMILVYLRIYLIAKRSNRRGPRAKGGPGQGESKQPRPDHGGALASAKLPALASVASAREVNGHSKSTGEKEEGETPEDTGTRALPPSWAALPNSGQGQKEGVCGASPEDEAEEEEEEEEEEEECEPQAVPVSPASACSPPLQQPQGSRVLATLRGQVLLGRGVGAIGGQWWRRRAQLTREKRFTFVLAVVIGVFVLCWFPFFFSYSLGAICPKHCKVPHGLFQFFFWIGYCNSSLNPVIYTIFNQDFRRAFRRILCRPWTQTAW
From the text: as §1, §2, §3
(§4) The results of the RSAT assay with several exemplary compounds of the invention are disclosed in Table 3. […] NA stands for “not active” at concentrations less than 10 micromolar. As is known EC50 is the concentration at which half of a given compound's maximal activity is observed. It can be seen from the table that the compounds of the invention are specific or selective agonists of α2B and/or α2C adrenergic receptors, with no agonist like activity or only with insignificant agonist-like activity on α2A receptors.

alpha2C receptor = target: T3, alpha2C receptor (Homo sapiens, UniProt P18825); assay: Receptor Selection and Amplification Technology (RSAT) assay, alpha2C; format: cell-based; conditions: NIH-3T3 cells; for EC50: NA = not active at concentrations less than 10 micromolar, read-out: RSAT EC50 (nM) Alpha 2C; for fraction of activity of the standard (brimonidine) attained, Alpha 2C (number in parenthesis): ratio of maximal effect to that of standard full agonist brimonidine
T3 construct: expressed in transfected cells; host or cells: NIH-3T3
T3 sequence (P18825 1-462): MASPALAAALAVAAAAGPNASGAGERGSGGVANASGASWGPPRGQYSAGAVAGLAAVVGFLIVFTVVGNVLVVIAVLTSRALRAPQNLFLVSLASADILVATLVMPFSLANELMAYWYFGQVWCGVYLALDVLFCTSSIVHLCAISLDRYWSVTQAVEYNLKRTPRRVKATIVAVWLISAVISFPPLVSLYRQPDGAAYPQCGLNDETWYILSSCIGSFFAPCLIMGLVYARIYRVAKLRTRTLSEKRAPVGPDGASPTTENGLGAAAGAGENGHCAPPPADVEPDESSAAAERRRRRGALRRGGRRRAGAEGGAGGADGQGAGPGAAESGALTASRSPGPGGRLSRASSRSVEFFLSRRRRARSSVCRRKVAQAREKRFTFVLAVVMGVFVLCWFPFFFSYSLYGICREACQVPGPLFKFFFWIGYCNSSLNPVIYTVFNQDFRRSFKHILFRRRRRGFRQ
From the text: as §1, §2, §3, §4

male Sprague-Dawley rats = assay: Sedative activity (exploratory behavior after i.p. injection); format: in vivo; conditions: rat, intraperitoneally, up to a dose of 300 μg/kg
Description: To test sedation, six male Sprague-Dawley rats are given up to 3 mg/kg of the test compound in a saline or DMSO vehicle by intraperitoneal injection (i.p.). Sedation is graded 30 minutes following administration of the drug by monitoring locomotor skills as follows.
The Sprague-Dawley rats are weighed and 1 ml/kg body weight of an appropriate concentration (ie. 3 mg/ml for a final dose of 3 mg/kg) drug solution is injected intraperitoneally. Typically the test compound is formulated in approximately 10 to 50% DMSO. The results are compared to controls that are injected with 1 ml/kg saline or 10 to 50% DMSO. Rat activity is then determined 30 minutes after injection of the drug solution. Rats are placed in a dark covered chamber and a digicom analyzer (Omnitech Electronic) quantitates their exploratory behavior for a five-minute period. The machine records each time the rat interrupts an array of 32 photoelectric beams in the X and Y orientation.

[1] = test system: rats with ligated L5 and L6 spinal nerves; assay: Alleviation of chronic pain: tactile allodynia after L5/L6 spinal nerve ligation (von Frey hairs); format: in vivo, rat; conditions: 30 minutes after administration, ±SEM
From the text: A model for chronic pain (in particular peripheral neuropathy such as causalgia) involves the surgical ligation of the L5 (and optionally the L6) spinal nerves on one side in experimental animals. Rats recovering from the surgery gain weight and display a level of general activity similar to that of normal rats. However, these rats develop abnormalities of the foot, wherein the hindpaw is moderately everted and the toes are held together. More importantly, the hindpaw on the side affected by the surgery appears to become sensitive to pain from low-threshold mechanical stimuli, such as that producing a faint sensation of touch in a human, within about 1 week following surgery. This sensitivity to normally non-painful touch is called “tactile allodynia” and lasts for at least two months. The response includes lifting the affected hindpaw to escape from the stimulus, licking the paw and holding it in the air for many seconds. None of these responses is normally seen in the control group.
Rats are anesthetized before surgery. The surgical site is shaved and prepared either with betadine or Novacaine. Incision is made from the thoracic vertebra XIII down toward the sacrum. Muscle tissue is separated from the spinal vertebra (left side) at the L4-S2 levels. The L6 vertebra is located and the transyerse process is carefully removed with a small rongeur to expose the L4-L6 spinal nerves. The L5 and L6 spinal nerves are isolated and tightly ligated with 6-0 silk thread. The same procedure is done on the right side as a control, except no ligation of the spinal nerves is performed. A complete hemostasis is confirmed, then the wounds are sutured. A small amount of antibiotic ointment is applied to the incised area, and the rat is transferred to the recovery plastic cage under a regulated heat-temperature lamp. On the day of the experiment, at least seven days after the surgery, typically six rats per test group are administered the test drugs by intraperitoneal (i.p.) injection or oral gavage. For i.p. injection, the compounds are formulated in approximately 10 to 50% DMSO and given in a volume of 1 ml/kg body weight.
Tactile allodynia is measured prior to and 30 minutes after drug administration using von Frey hairs that are a series of fine hairs with incremental differences in stiffness. Rats are placed in a plastic cage with a wire mesh bottom and allowed to acclimate for approximately 30 minutes. The von Frey hairs are applied perpendicularly through the mesh to the mid-plantar region of the rats' hindpaw with sufficient force to cause slight buckling and held for 6-8 seconds. The applied force has been calculated to range from 0.41 to 15.1 grams. If the paw is sharply withdrawn, it is considered a positive response. A normal animal will not respond to stimuli in this range, but a surgically ligated paw will be withdrawn in response to a 1-2 gram hair. The 50% paw withdrawal threshold is determined using the method of Dixon, […]. The post-drug threshold is compared to the pre-drug threshold and the percent reversal of tactile sensitivity is calculated based on a normal threshold of 15.1 grams. The results are expressed in per cent (%) MPE, where the MPE value reflects the percentage reversal of pain threshold to that of a normal animal (100%). Table 4 below indicates results of this test with Compounds 8, 34 and 40 of the invention, administered i.p., in intrathecal and oral doses.

| EC50 (alpha2A receptor) [nM] | fraction of activity of the standard (brimonidine) attained, Alpha 2A (number in parenthesis) (alpha2A receptor) | EC50 (alpha2B receptor) [nM] | fraction of activity of the standard (brimonidine) attained, Alpha 2B (number in parenthesis) (alpha2B receptor) | EC50 (alpha2C receptor) [nM] | fraction of activity of the standard (brimonidine) attained, Alpha 2C (number in parenthesis) (alpha2C receptor) | SMILES | sedative effect (male Sprague-Dawley rats) | % MPE ([1]; IP dose 10 μg/kg) [% MPE] | % MPE ([1]; IP dose 30 μg/kg) [% MPE] | % MPE ([1]; IP dose 100 μg/kg) [% MPE] | % MPE ([1]; IP dose 300 μg/kg) [% MPE] | % MPE ([1]; IP dose 1000 μg/kg) [% MPE] | % MPE ([1]; IP dose 3000 μg/kg) [% MPE] | % MPE ([1]; Oral dose 1000 μg/kg) [% MPE] |
| --- | --- | --- | --- | --- | --- | --- | --- | --- | --- | --- | --- | --- | --- | --- |
| 14 | (0.4) | 2 | (0.93) | 106 | (0.4) | CC[C@H]1CCCC[C@@H]1NC(=S)NCCO (relative stereo) [Compound 37, 1-(trans-2-Ethyl-cyclohexyl)-3-(2-hydroxy-ethyl)-thiourea] | – | – | – | – | – | – | – | – |
| 515 | (0.4) | 5 | (1.08) | 197 | (0.4) | CC1=C(C)C(NC(=S)NCCO)CC1 (stereo not shown) [Compound 15, 1-(2,3-Dimethyl-cyclopent-2-enyl)-3-(2-hydroxy-ethyl)-thiourea] | – | – | – | – | – | – | – | – |
| – | – | 57 | (0.62) | – | – | C[C@H]1CC[C@H](NC(=S)NCCO)CC1 [Compound 40, 1-(2-Hydroxy-ethyl)-3-(4-methyl-cyclohexyl)-thiourea] | no sedative effect | 0.1 ± 1.8 | 42 ± 9.2 | 46 ± 7.1 | 77 ± 8.0 | 83 ± 7.0 | 90 ± 6.1 | 80 ± 6.1 |
